Results from US7326686B2, “Compounds and methods for regulating cell adhesion” (Adherex Inc., priority 1997, dated 2008).
Where no end group is shown, it is not given here.

How the values were obtained:
[1] = tested on: Schwann cell-astrocyte adhesion; experiment: Schwann cell-astrocyte adhesion assay (Dil-labelled Schwann cells on astrocyte monolayer, shaking platform 30 min); type: cell-based, rat
Description: The effect of a modulating agent on Schwann cell adhesion to astrocytes may generally be evaluated using a cell adhesion assay. Briefly, Schwann cells fluorescently labeled with Di-I may be plated onto an astrocytic surface (e.g., a glass coverslip coated with a monolayer of astrocytes) and incubated on a shaking platform (e.g., 25 rpm for 30 minutes) in the presence and absence of modulating agent (e.g., LRAHAVDING (SEQ ID NO: 21) at a concentration of 1 mg/mL). Cells may then be washed (e.g., in Hanks medium) to remove non-attached cells. The attached cells may then be fixed and counted (e.g., using a fluorescent microscope). In general, 1 mg/mL of a modulating agent results in an increase or decrease in cell adhesion of at least 50%. This assay evaluates the effect of a modulating agent on N-cadherin mediated cell adhesion.
In order to test whether the migratory behavior of Schwann cells on different cell types was a function of adhesivity to the substratum, Dil-labeled Schwann cells were plated onto either astrocytic, fibroblasts, Schwann cell or laminin surfaces. 20,000 Dil-labeled Schwann cells were placed in a 15 mm diameter well in 0.5 ml of medium over a 13 mm glass coverslip coated with laminin, or a complete monolayer of astrocytes, fibroblasts or Schwann cells and then placed onto a shaking platform (25 rpm) for 30 minutes in an incubator. The coverslips were washed three times in Hanks after 30 minutes to remove any non-attached cells and the remainder were fixed for 20 minutes in 4% paraformaldehyde. The number of Dil-labeled Schwann cells that were attached to the coverslip were counted using a Leitz Diaplan fluorescent microscope under rhodamine optics.
In order to reduce extracellular calcium, DMEM was replaced by S-MEM (Joklik's modification; Gibco) with 0.2 mM calcium chloride added or the calcium buffer EGTA (Sigma) was employed. Adhesion assays in the absence of external calcium were performed using Schwann cells and astrocytes. Either a low calcium solution (S-MEM in place of DMEM with 0.2 mM calcium chloride) or a calcium buffer (EGTA in a normal DMEM medium) was used in these assays. […] EGTA concentrations less than 1.3 mM had little effect upon Schwann cell migration whereas those above 1.8 mM caused disruption of the astrocytic monolayer (data not shown). Adhesion of Schwann cells to astrocytes in the presence of the standard DMEM based medium was taken as the control and assigned the normalized value of 1.0±0.03. Low calcium solutions reduced intercellular adhesion to 0.47±0.09 and the addition of 1.6 mM EGTA to DMEM reduced adhesion to 0.39±0.05 (FIG. 10A). […]

[2] = tested on: Schwann cell migration on astrocytes; experiment: Micro-inverted-coverslip migration assay on astrocyte monolayers; type: cell-based, rat
Description: Schwann cell migration may generally be evaluated using a micro-inverted-coverslip assay. In this assay, a dense Schwann cell culture is established on coverslip fragments and Schwann cell migration away from the fragment edge is measured. Briefly, Schwann cells fluorescently labeled with Di-I may be plated on polylysine- and laminin-coated fragments of a glass coverslip and allowed to bind to the surface for 16-18 hours. Cells may then be washed (e.g., in Hanks medium) to remove non-attached cells, and then inverted, with cells facing downward onto an astrocyte-coated surface. Cultures are then incubated further for 2 days in the presence or absence of modulating agent (e.g., LRAHAVDING (SEQ ID NO: 21) at a concentration of 1 mg/mL) and fixed. The maximum migration distance from the edge of the coverslip fragment may then be measured. At a level of 1 mg/mL, modulating agent results in an increase or decrease in the maximum migration distance of at least 50%. This assay evaluates the effect of a modulating agent on N-cadherin mediated cell adhesion.
In order to assess the rates of Schwann cell migration on different surfaces, the micro-inverted-coverslip migration assay was employed. This is a variation of the technique first described by Fok-Seang et al., Dev. Biol. 171:1-15, 1995. Schwann cells fluorescently labeled with Di-I (25 μg/ml) were evenly plated onto polylysine and laminin coated fragments of glass coverslip (1×2 mm). After 16-18 hours, the pieces of glass coated with Di-I labeled Schwann cells were dipped into Hanks three times to remove any loosely attached cells and then inverted with cells facing downwards onto laminin-coated tissue culture surfaces or onto cell monolayers. These cultures were then incubated for a further two days and fixed for 20 minutes with 4% paraformaldehyde. The maximum migration distance was measured, and the number of cells in bands of 0.1 mm progressing outwards from the edge of the coverslip were counted.
In this assay, a dense Schwann cell culture is established on coverslip fragments and their migration away from its edge measured. The assay therefore measures the ability of Schwann cells to migrate on a surface, and their ability to migrate away from a confluent Schwann cell monolayer. The migration front of the foremost cells was measured, and the number of cells against distance of migration plotted. Schwann cell-laden fragments were placed on laminin to give a baseline migration rate on a favorable defined surface, and laminin controls were done for comparison on each assay.

[3] = peptide 1 mg/ml, adhesion in the absence of peptide = 1.0±0.05, mean±S.E.M.

O=C(O)CN(CCOCCOCCN(CC(=O)O)CC(=O)O)CC(=O)O [EGTA]
Schwann cell-astrocyte adhesion, normalized ([1]; 1.6 mM EGTA added to DMEM, standard DMEM control = 1.0±0.03): 0.39±0.05 | extent of Schwann cell migration upon astrocyte monolayers ([2]; EGTA 1.6 mM, control migration 0.25±0.03): 0.86 mm | concentrations causing disruption of the astrocytic monolayer ([2]; data not shown): above 1.8 mM | concentrations with little effect upon Schwann cell migration ([2]; data not shown): less than 1.3 mM | optimal concentration for Schwann cell migration ([2]; various concentrations of EGTA tested (data not shown)): 1.6 mM

MRAHAVDING-NH2
Schwann cell-astrocyte adhesion, normalized [1, 3]: 0.39±0.04

LRAHGVDING-NH2
Schwann cell-astrocyte adhesion, normalized [1, 3]: 0.78±0.10

LRAHAVDING-NH2
Schwann cell-astrocyte adhesion, normalized [1, 3]: 0.38±0.07
